Measurements from the Biogen ADME set (Fang et al. 2023).
Values after ≈ are worked out from the molar mass of the structure shown.

Conditions: for aqueous solubility: pH 6.8

Structure (SMILES)	MDR1-MDCK efflux ratio	intrinsic clearance, human liver microsomes	intrinsic clearance, rat liver microsomes	aqueous solubility	fraction unbound, human plasma	fraction unbound, rat plasma
COc1ccc(Cc2cccc(C3CCN(C(=O)C4CCCC4)CC3)n2)cc1	0.66	114 mL/min/kg	883 mL/min/kg	25.8 µg/mL (≈ 68.2 µM)		
O=C(O)c1ccccc1-n1cnc(CN2CCCC2)c1	2.49	≤ 4.74 mL/min/kg	≤ 10.7 mL/min/kg	38.8 µg/mL (≈ 143 µM)		
CC(=O)N1CCC(CCNc2ccc3ccc(F)cc3n2)CC1	0.795	21.5 mL/min/kg	264 mL/min/kg	46.2 µg/mL (≈ 146 µM)		
CN(C)CCSc1nnnn1-c1ccc(Br)cc1	0.435	28.6 mL/min/kg	1740 mL/min/kg			
CN1CCc2ncnc(N3CCCN(c4nccs4)CC3)c2C1	4.76	23.3 mL/min/kg	131 mL/min/kg	43.2 µg/mL (≈ 131 µM)		
Cc1nccc(-c2cccc(NCc3cc(C)on3)c2)n1	0.536	59.6 mL/min/kg	350 mL/min/kg	46.6 µg/mL (≈ 166 µM)		
O=C(NC1CCNCC1)c1ccc2[nH]ncc2c1	0.239	25.9 mL/min/kg			0.696	0.845
Nc1nc(N)c2c(Cl)c(Br)ccc2n1	0.574	7.36 mL/min/kg	84.7 mL/min/kg	24.6 µg/mL (≈ 90 µM)		
Nc1cnn(CC(=O)N2CCCCC2)c1		≤ 4.74 mL/min/kg	≤ 10.7 mL/min/kg	36.4 µg/mL (≈ 175 µM)		
COc1ccc(-c2nnc(NC(=O)c3ccc4ccccc4c3)o2)cc1OC				0.27 µg/mL (≈ 0.719 µM)		
CCC(=O)N1CCCC(C(=O)N2CCc3c(Cl)cc(Cl)cc3C2C)C1 (stereo not drawn)		416 mL/min/kg	1510 mL/min/kg	54.8 µg/mL (≈ 143 µM)		
O=C(c1ccc(F)cc1)N1Cc2nc[nH]c2C[C@H]1c1nc(-c2ccc(Cl)cc2)no1		21.3 mL/min/kg	133 mL/min/kg	20.2 µg/mL (≈ 47.7 µM)		
COc1ccc(-c2csc(CC(N)=O)n2)cc1Br				37.5 µg/mL (≈ 115 µM)		
COc1cccc([C@@H](C)n2cnc3cn(C)nc3c2=O)c1	1.44	≤ 4.74 mL/min/kg	67.2 mL/min/kg			
N#Cc1cccc(CN2CCC=C(CNC(=O)c3cccs3)C2)c1	2.25	56.7 mL/min/kg	442 mL/min/kg	52.2 µg/mL (≈ 155 µM)		
Cc1cc(C(=O)O)c2ccc(F)cc2n1				24.8 µg/mL (≈ 121 µM)		
O=C(NCc1ccc2c(c1)OCCO2)c1sccc1C1CC1	0.474	147 mL/min/kg	2320 mL/min/kg	31.2 µg/mL (≈ 98.9 µM)		
CC(=O)Nc1ccc(C(=O)N2CCc3ncncc3C2)cc1	17.2	≤ 4.74 mL/min/kg	≤ 10.7 mL/min/kg	33.7 µg/mL (≈ 114 µM)		
Cc1nnnn1CCN(C)c1ccccc1	0.596	8.8 mL/min/kg	221 mL/min/kg	11.2 µg/mL (≈ 51.4 µM)		
O=C(Cn1c(-c2ccc(F)cc2)nc2ccccc21)N1CCOCC1	12.8	≤ 4.74 mL/min/kg	≤ 10.7 mL/min/kg	54.6 µg/mL (≈ 161 µM)		

Structure (SMILES)	MDR1-MDCK efflux ratio	intrinsic clearance, human liver microsomes	intrinsic clearance, rat liver microsomes	aqueous solubility	fraction unbound, human plasma	fraction unbound, rat plasma
CC(=O)Nc1cnn(CC2CCN(C)CC2)c1	3.56	≤ 4.74 mL/min/kg	≤ 10.7 mL/min/kg	23.5 µg/mL (≈ 99.4 µM)		
CCCn1ncc(CN2CCC(c3cc4cccnc4[nH]3)CC2)c1C	8.86	41.8 mL/min/kg	201 mL/min/kg			
COc1ccc(/C=C/C(=O)c2c(C)nc3ccccc3c2N)c(OC)c1		43.4 mL/min/kg	814 mL/min/kg	40.6 µg/mL (≈ 117 µM)		
O=C(O)c1cnc(/C=C/c2csc(-c3ccsc3)n2)s1	0.832	7.87 mL/min/kg	59.3 mL/min/kg	77.5 µg/mL (≈ 242 µM)		
Cc1csc2nc3n(c(=O)c12)CCNCC3	0.686	7.83 mL/min/kg	228 mL/min/kg			
CCCCOc1ccc(C(=O)NCc2cc(C)on2)cc1	0.563	11.8 mL/min/kg	421 mL/min/kg	4.2 µg/mL (≈ 14.6 µM)		
Cc1c[nH]c2nccc(Oc3c(F)cc(Nc4cc(Cl)nc(N)n4)cc3F)c12	2.53	14.3 mL/min/kg	173 mL/min/kg		0.0006	0.00206
C#CCNC(=O)N(Cc1ccccc1F)C1CCOCC1	2.15	≤ 4.74 mL/min/kg	35.5 mL/min/kg			
Cc1ccc(C)c(CN2C(=O)C(=O)N(CC(C)C)C2=O)c1				1.75 µg/mL (≈ 6.07 µM)		
O=C(CSc1nc2nc(O)cc(O)c2s1)c1ccc(-c2ccccc2)cc1	0.876	139 mL/min/kg	128 mL/min/kg	7 µg/mL (≈ 17.7 µM)		
CCONC(=O)c1sc(C)nc1C	0.788	≤ 4.74 mL/min/kg	≤ 10.7 mL/min/kg	29 µg/mL (≈ 145 µM)		
O=C(Cc1ccc2c(c1)OCCO2)NC1CCCCCC1	0.619	194 mL/min/kg	927 mL/min/kg	42.1 µg/mL (≈ 146 µM)		
CC(C)C[C@H](C(=O)N[C@H](C(=O)OC1CCCC1)c1ccccc1)[C@@H](O)C(=O)NO		55.3 mL/min/kg	598 mL/min/kg			
COc1ccc(Oc2cc(C)c(-c3csc(NC(=O)c4ccncc4)n3)c(C)c2)cc1				0.31 µg/mL (≈ 0.718 µM)		
Cc1cc(C(=O)NCC2CCC3(CC2)OCCO3)[nH]n1	4.03	≤ 4.74 mL/min/kg	99.2 mL/min/kg			
O=C(O)c1ccc(CCC(=O)N2CCc3c(F)cc(F)cc3C2)cc1	4.05	≤ 4.74 mL/min/kg	≤ 10.7 mL/min/kg			
COc1ccc(F)cc1-c1ccc(-c2nnco2)cc1		23.8 mL/min/kg	333 mL/min/kg			
Cc1ccc(C)c2c(O)cc(CN3CC(c4ccccn4)C3)nc12	4.2	36.5 mL/min/kg	1050 mL/min/kg	58.3 µg/mL (≈ 183 µM)		
Cc1ccc(NC(=O)CN2CCCN(c3ccc(C(F)(F)F)cn3)CC2)c(F)c1	1.09	141 mL/min/kg	643 mL/min/kg	24.6 µg/mL (≈ 59.9 µM)		
O=c1n(Cc2ccccn2)nc2n1-c1cc(Cl)ccc1C1=NCCN12		≤ 4.74 mL/min/kg	47.9 mL/min/kg			

Structure (SMILES)	MDR1-MDCK efflux ratio	intrinsic clearance, human liver microsomes	intrinsic clearance, rat liver microsomes	aqueous solubility	fraction unbound, human plasma	fraction unbound, rat plasma
N#Cc1c(N)nc(-c2ccccc2)nc1C(F)(F)F				0.19 µg/mL (≈ 0.719 µM)		
Cc1nc(C2(NCc3cccc(C#N)c3)CCCC2)no1	0.681	13.3 mL/min/kg	505 mL/min/kg	47.6 µg/mL (≈ 169 µM)		
OCC1CN(c2nc3cc(F)ccc3o2)C1	0.704	≤ 4.74 mL/min/kg	17.2 mL/min/kg			
O=C(Nc1ccc2sccc2c1)N1CCCN(C(=O)Oc2ccccc2)CC1	1.31	78.3 mL/min/kg	765 mL/min/kg	37.9 µg/mL (≈ 95.7 µM)		
COc1cc(OC)cc(N2CCC(NCC3(C)CCOCC3)CC2)c1	1.55	≤ 4.74 mL/min/kg	58.2 mL/min/kg			
COc1cccc(-c2cccc(N)n2)c1F	0.764	84.1 mL/min/kg	258 mL/min/kg	18.2 µg/mL (≈ 83.4 µM)		
Cc1nc2ccc(NC(=O)c3sc(-c4ccccn4)nc3C)cc2s1	0.685	10.2 mL/min/kg	38.5 mL/min/kg	1.3 µg/mL (≈ 3.55 µM)		
CN(C(=O)[C@@H](N)Cc1ccccc1)c1ccccc1		≤ 4.74 mL/min/kg	392 mL/min/kg			
Cc1cc(F)ccc1NC(=O)c1cccc2cccnc12	0.117			0.44 µg/mL (≈ 1.57 µM)		
CCNc1ccnc(-c2cccc(C(=O)NCCCc3cnn(C)c3)c2)n1	39.2	26.1 mL/min/kg	634 mL/min/kg			
Cc1cc(-c2nc(N(C)C)no2)cc(O)n1	0.726	≤ 4.74 mL/min/kg	31.7 mL/min/kg			
CCOc1ncccc1-c1cc(Cl)ccc1O	0.595	59.9 mL/min/kg	654 mL/min/kg	22.7 µg/mL (≈ 90.9 µM)		
Cc1nonc1C(=O)Nc1cccnc1N(C)C		16.6 mL/min/kg	173 mL/min/kg			
CN1CCC[C@@H]1CCO[C@](C)(c1ccccc1)c1ccc(Cl)cc1		24.8 mL/min/kg	1090 mL/min/kg	98.7 µg/mL (≈ 287 µM)		
Cc1ccc(CNC/C=C/c2ccccc2)cn1	0.387	28.5 mL/min/kg	410 mL/min/kg	29.1 µg/mL (≈ 122 µM)		
CC(=O)N(C)[C@H]1CC2(CCN(C(=O)COc3cc(C)c(Cl)c(C)c3)CC2)OC[C@]1(C)O	8.59	78.1 mL/min/kg	442 mL/min/kg			
CN(C)c1cccc(C2CCN(c3ncccn3)CC2)n1		94.4 mL/min/kg	2250 mL/min/kg	16.9 µg/mL (≈ 59.5 µM)		
Cc1ccc(-n2nc(NCc3cnn(C)c3)cc2C)cc1	0.727	≤ 4.74 mL/min/kg	70.4 mL/min/kg			
OC[C@@H](c1ccccc1)n1cc(CCc2ccccc2)nn1	0.889	24.7 mL/min/kg	694 mL/min/kg	14 µg/mL (≈ 47.9 µM)		
